Tests used:
Experiment in all cases: relative viability (nuclei count vs DMSO), 5 days (fraction); higher = more cells survive
[1] = system: 201T
Method in brief: (§1)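 Lung cancer cell lines were seeded in 1536-well plates and dosed by pin tool the next day, with either a single drug or a fixed anchor-drug dose combined with five library-drug doses (not always all listed) spaced in √10 steps. Five days later, one step fixed the cells and stained their nuclei (final 0.05% Triton X-100, 1% formaldehyde, 1 ug/ml Hoechst), and nuclei were counted on 4× images. Relative viability is the nuclei count in treated wells divided by the count in vehicle wells, and each value is the median of duplicate plates.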

[2] = system: BEN
Method in brief: as §1

[3] = system: CAL-12T
Method in brief: as §1

[4] = system: HCC-78
Method in brief: as §1

[5] = system: HOP-62
Method in brief: as §1

[6] = system: LCLC-97TM1
Method in brief: as §1

[7] = system: LOU-NH91
Method in brief: as §1

[8] = system: NCI-H1355
Method in brief: as §1

[9] = system: NCI-H1395
Method in brief: as §1

[10] = system: NCI-H1563
Method in brief: as §1

[11] = system: NCI-H1651
Method in brief: as §1

[12] = system: NCI-H1793
Method in brief: as §1

[13] = system: NCI-H1915
Method in brief: as §1

[14] = system: NCI-H1944
Method in brief: as §1

[15] = system: NCI-H2126
Method in brief: as §1

[16] = system: NCI-H2347
Method in brief: as §1

[17] = system: NCI-H3122
Method in brief: as §1

[18] = system: NCI-H322M
Method in brief: as §1

[19] = system: NCI-H441
Method in brief: as §1

[20] = system: NCI-H650
Method in brief: as §1

[21] = system: NCI-H838
Method in brief: as §1

[22] = system: SK-LU-1
Method in brief: as §1

[23] = system: SW 1573
Method in brief: as §1

Work on `CN1CCN(CCOc2cc(OC3CCOCC3)c3c(Nc4c(Cl)ccc5c4OCO5)ncnc3c2)CC1` [Saracatinib] + Nc1nc2[nH]cc(CCc3ccc(C(=O)N[C@@H](CCC(=O)O)C(=O)O)cc3)c2c(=O)[nH]1 [Pemetrexed] (partner 0.2 µM) yielded a relative viability ([1]; first compound 0.02 µM) of 0.312, a relative viability ([1]; first compound 0.2 µM) of 0.337 and a relative viability ([1]; first compound 0.6325 µM) of 0.341. The relative viability ([1]; first compound 2 µM) was 0.336, the relative viability ([2]; first compound 0.02 µM) was 0.916 and the relative viability ([2]; first compound 0.2 µM) was 0.824. The relative viability ([2]; first compound 0.6325 µM) was 0.727, the relative viability ([2]; first compound 2 µM) was 0.667 and the relative viability ([3]; first compound 0.02 µM) was 1.27. It also gave a relative viability ([3]; first compound 0.2 µM) of 1.15, a relative viability ([3]; first compound 0.6325 µM) of 1.33 and a relative viability ([3]; first compound 2 µM) of 1.18. The relative viability ([4]; first compound 0.02 µM) was 0.916, the relative viability ([4]; first compound 0.6325 µM) was 0.925 and the relative viability ([4]; first compound 2 µM) was 0.841. It also gave a relative viability ([5]; first compound 0.02 µM) of 0.377, a relative viability ([5]; first compound 0.2 µM) of 0.33 and a relative viability ([5]; first compound 0.6325 µM) of 0.332. It also gave a relative viability ([5]; first compound 2 µM) of 0.375, a relative viability ([6]; first compound 0.02 µM) of 0.18 and a relative viability ([6]; first compound 0.2 µM) of 0.134. The relative viability ([6]; first compound 0.6325 µM) was 0.172, the relative viability ([6]; first compound 2 µM) was 0.136 and the relative viability ([7]; first compound 0.02 µM) was 0.397. It also gave a relative viability ([7]; first compound 0.2 µM) of 0.417, a relative viability ([7]; first compound 0.6325 µM) of 0.472 and a relative viability ([7]; first compound 2 µM) of 0.457. The relative viability ([8]; first compound 0.02 µM) was 1, the relative viability ([8]; first compound 0.2 µM) was 1.02 and the relative viability ([8]; first compound 0.6325 µM) was 1. The relative viability ([8]; first compound 2 µM) was 1.06, the relative viability ([9]; first compound 0.02 µM) was 0.896 and the relative viability ([9]; first compound 0.2 µM) was 0.769. For the same compound, the relative viability ([9]; first compound 0.6325 µM) was 0.846, the relative viability ([9]; first compound 2 µM) was 0.612 and the relative viability ([10]; first compound 0.02 µM) was 0.946. The relative viability ([10]; first compound 0.2 µM) was 0.576, the relative viability ([10]; first compound 0.6325 µM) was 0.742 and the relative viability ([10]; first compound 2 µM) was 0.592. It also gave a relative viability ([11]; first compound 0.02 µM) of 0.633, a relative viability ([11]; first compound 0.2 µM) of 0.566 and a relative viability ([11]; first compound 0.6325 µM) of 0.621. For the same compound, the relative viability ([11]; first compound 2 µM) was 0.581, the relative viability ([12]; first compound 0.02 µM) was 0.947 and the relative viability ([12]; first compound 0.2 µM) was 0.766. It also gave a relative viability ([12]; first compound 0.6325 µM) of 0.743, a relative viability ([12]; first compound 2 µM) of 0.568 and a relative viability ([13]; first compound 0.02 µM) of 0.477. For the same compound, the relative viability ([13]; first compound 0.2 µM) was 0.4, the relative viability ([13]; first compound 0.6325 µM) was 0.501 and the relative viability ([13]; first compound 2 µM) was 0.481. The relative viability ([14]; first compound 0.02 µM) was 0.533, the relative viability ([14]; first compound 0.2 µM) was 0.663 and the relative viability ([14]; first compound 0.6325 µM) was 0.626. The relative viability ([14]; first compound 2 µM) was 0.429, the relative viability ([15]; first compound 0.02 µM) was 0.772 and the relative viability ([15]; first compound 0.2 µM) was 0.664. It also gave a relative viability ([15]; first compound 0.6325 µM) of 0.659, a relative viability ([15]; first compound 2 µM) of 0.558 and a relative viability ([16]; first compound 0.02 µM) of 0.435. It also gave a relative viability ([16]; first compound 0.2 µM) of 0.421, a relative viability ([16]; first compound 0.6325 µM) of 0.464 and a relative viability ([16]; first compound 2 µM) of 0.429. The relative viability ([17]; first compound 0.02 µM) was 0.195, the relative viability ([17]; first compound 0.2 µM) was 0.169 and the relative viability ([17]; first compound 0.6325 µM) was 0.197. For the same compound, the relative viability ([17]; first compound 2 µM) was 0.169, the relative viability ([18]; first compound 0.02 µM) was 0.574 and the relative viability ([18]; first compound 0.2 µM) was 0.55. For the same compound, the relative viability ([18]; first compound 0.6325 µM) was 0.505, the relative viability ([18]; first compound 2 µM) was 0.32 and the relative viability ([19]; first compound 0.02 µM) was 0.28. It also gave a relative viability ([19]; first compound 0.2 µM) of 0.238, a relative viability ([19]; first compound 0.6325 µM) of 0.316 and a relative viability ([19]; first compound 2 µM) of 0.272. The relative viability ([20]; first compound 0.02 µM) was 0.962, the relative viability ([20]; first compound 0.2 µM) was 0.903 and the relative viability ([20]; first compound 0.6325 µM) was 0.884. It also gave a relative viability ([20]; first compound 2 µM) of 0.874, a relative viability ([21]; first compound 0.02 µM) of 0.254 and a relative viability ([21]; first compound 0.2 µM) of 0.204. For the same compound, the relative viability ([21]; first compound 0.6325 µM) was 0.248, the relative viability ([21]; first compound 2 µM) was 0.227 and the relative viability ([22]; first compound 0.02 µM) was 0.918. For the same compound, the relative viability ([22]; first compound 0.2 µM) was 0.868, the relative viability ([22]; first compound 0.6325 µM) was 0.654 and the relative viability ([22]; first compound 2 µM) was 0.557. For the same compound, the relative viability ([23]; first compound 0.02 µM) was 0.823, the relative viability ([23]; first compound 0.2 µM) was 0.899 and the relative viability ([23]; first compound 0.6325 µM) was 0.794. It also gave a relative viability ([23]; first compound 2 µM) of 0.767.

From the supplement of paper PMC10307832
